# Assay results from patent US20080214661A1, “Process To Obtain Dibenzylbutyrolactonic, Tetrahydrofuranic Lignans And Their Synthetic And Semi-Synthetic Derivatives, Their Analgesic And Anti-Inflammatory Activities, Topical And/Or Systemic Formulations Containing Said Lignans And Their Respective Therapeutic Method” (FUNDACADO DE AMPARO A PESQUISA DO ESTADO DE SAO PAULO, priority 2005, published 2008).
# How the values were obtained:
# Assay type in all cases: in vivo
# [1] = test system: rat foot edema induced by carrageenin; test: rat foot edema induced by carrageenin; conditions: oral administration; for inhibition as anti-inflammatory agent (rat foot edema): doses of 10, 20, 30 and 40 mg/kg, carrageenin 100 μg/foot, edema volume at third hour, dose for the value not stated
# Procedure: Each bar represents the average ±SE (n=6) of the increase in edema volume (third hour) after the injection of carrageenin. Data were analyzed by one-way ANOVA and by Dunnett's multiple comparison variation test and the statistical significance was made for the level of p<0.05 (*) and p<0.01 (**).
# [2] = test system: writhing induced by 0.6% acetic acid solution in mice; test: writhing test induced by intraperitoneal injection of acetic acid; conditions: oral administration, doses of 10, 20, 30 and 40 mg/kg; 0.6% acetic acid i.p. in mice; number of writhing in 20 minutes; dose for the value not stated
# Procedure: Each bar represents the average ±SE (n=6) of the number of writhing in 20 minutes for different doses. Data were analyzed by one-way ANOVA and by Dunnett's multiple comparison variation test and the statistical significance was made for the level of p<0.05 (*) and p<0,01 (**)
# digestive system = test: preliminary tests of side effects (gastric, biochemical, hematological)
compound,measurement,setting,value
"Nc1cc2c(cc1CC1COC(=O)C1Cc1cc3c(cc1N)OCO3)OCO2 (single isomer, unassigned; (-)) [compound 8, (-)-6,6′-diaminohinokinin]",inhibition as anti-inflammatory agent (rat foot edema),[1],82%
same,inhibition as analgesic agent (writhing test),[2],92%
same,gastric effects,digestive system,not evident
same,other biochemical and hematological disturbances,digestive system,non-occurrence
"COc1ccc2c(c1)c(CC(=O)O)c(C)n2C(=O)c1ccc(Cl)cc1 [indomethacin, reference compound]",gastric effects,digestive system,gastric effects as observed
"c1ccc(COC2OC[C@@H](Cc3ccc4c(c3)OCO4)[C@@H]2Cc2ccc3c(c2)OCO3)cc1 (stereo partly drawn) [compound 5, (-)—O-benzyl cubebin]",efficacy as anti-inflammatory agent,"[1]; 10-40 mg/kg, carrageenin-induced rat foot edema",not efficient as an anti-inflammatory agent
same,inhibition as analgesic agent (writhing test),[2],89%
"O=C1OC[C@@H](Cc2ccc3c(c2)OCO3)[C@@H]1Cc1ccc2c(c1)OCO2 [compound 6, (-)-hinokinin]",inhibition as anti-inflammatory agent (rat foot edema),[1],71%
same,inhibition as analgesic agent (writhing test),[2],95%
same,gastric effects,digestive system,not evident
same,other biochemical and hematological disturbances,digestive system,non-occurrence
"(-)-6,6′-dinitroinokinin [compound 7]",inhibition as anti-inflammatory agent (rat foot edema),[1],62%
same,inhibition as analgesic agent (writhing test),[2],75%
